Results reported in patent US10869863B2, “Multi-arm polymeric targeting anti-cancer conjugate” (priority 2016, dated 2020).

Columns and labels:
[1] = test system: human colon cancer HT-29 transplanted tumor; assay: Inhibitory effect on in vivo tumor growth, human colon cancer HT-29 transplanted tumor model in nude mice; settings: HT-29 in female BALB/c nude mice; 40 mg·kg^−1 (as content of active agent) IV Q4D×3; experiment ended after 21 days; n=5
Protocol: HT-29 cells in logarithmic phase of growth were collected. […] Cell suspension was aspirated with a 1 mL syringe, and injected subcutaneously to the anterior right armpit of nude mice. Each animal was inoculated with 100 μL (6×10^6 cells/animal), and the HT-29 transplated tumor model in nude mice was established. Animal status and the condition of tumor growth were observed regularly after inoculation, an electronic vernier caliper was used to measure the tumor diameters, the data was directly input to an Excel spreadsheet, and the tumor volumes were calculated. […] The tumor diameters were measured twice a week after the initiation of the experiment, the tumor volumes were calculated, and the body weights of the animals were weighed and recorded at the same time.
The calculation formula of the tumor volume (TV) was as follows: TV(mm^3)=l×w^2/2
(§1) The first administration was initiated on the day of grouping, the experiment was ended after 21 days, and the volumes of administration were all 10 mL·kg^−1. […]
On the last day of the experiment, the animals were euthanized (CO2) after the body weights were weighed and the tumor diameters were measured. The tumor tissues were excised, weighed and photographed (respectively photographed according to the following combinations), and the tumor weight inhibition rates were calculated. […]

[2] = test system: human breast cancer MDA-MB-231 transplanted tumor; assay: Inhibitory effect in human breast cancer MDA-MB-231 xenograft model in nude mice; type: in vivo; settings: MDA-MB-231 in female BALB/c nude mice; 40 mg·kg^−1 IV Q4D×3; 3 weeks; n=5
Protocol: MDA-MB-231 cells were cultured in DMEM, which contained 10% fetal bovine serum FBS (GIBCO, USA). The cells were placed in a 37° C. incubator containing 5% CO2 to cultivate.
A subcutaneous tumor xenograft model in nude mice was established by cell inoculation method: tumor cells in logarithmic phase of growth were collected, counted and then resuspended in 1×PBS, and the concentration of the cell suspension was adjusted to 1×10^7/mL. 1 mL syringes (4 gauge needle) were used to inoculate the tumor cells to the right back of the nude mice subcutaneously, 1×10^6/0.1 mL/mice. […]
(§2) The experimental period lasted for 3 weeks, and the body weights and the tumor sizes of the animals were measured twice a week during the experiment. The clinical symptoms were observed and recorded daily. On the last day of the experiment, the animals were sacrificed, the body weights were weighed, and the tumors were excised, weighed and recorded by photographing.
(§3) The calculation formula of the tumor volume (TV) was: TV=a×b^2/2, wherein a and b represented the measured length and width of the tumor, respectively. The calculation formula of the relative tumor volume (RTV) was: RTV=Vt/V0, wherein V0 was the tumor volume measured at the time of grouping and first administration, and Vt was the tumor volume at the time of a measurement.

[3] = test system: human pancreatic cancer MIA Paca-2 transplanted tumor; assay: Inhibitory effect in human pancreatic cancer MIA Paca-2 xenograft model in nude mice; type: in vivo; settings: MIA Paca-2 in female BALB/c-nu/nu nude mice; 40 mg·kg^−1 IV Q4D×3; 3 weeks; n=5
Protocol: The cells were placed in a 37° C. incubator containing 5% CO2 to cultivate.
A subcutaneous tumor xenograft model in nude mice was established by cell inoculation method: tumor cells in logarithmic phase of growth were collected, counted and then resuspended in 1×PBS, and the concentration of the cell suspension was adjusted to 3×10^7/mL. 1 mL syringes (4 gauge needle) were used to inoculate the tumor cells to the right back of the nude mice subcutaneously, 3×10^6/0.1 mL/mice. […]
as §2, §3

[4] = test system: human gastric cancer NCI-N87 transplanted tumor; assay: Inhibitory effect on in vivo tumor growth, human gastric cancer NCI-N87 cell strain transplanted tumor model in nude mice; settings: 40 mg·kg^−1 (as active agent) IV Q4D × 3, n=5
Protocol: NCI-N87 cells in logarithmic phase of growth were collected. […] Cell suspension was aspirated with a 1 mL syringe, and injected subcutaneously to the anterior right armpit of the nude mice. Each animal was inoculated with 100 μL (5×10^6 cells/animal), and the NCI-N87 transplanted tumor model in nude mice was established. Animal status and the condition of tumor growth were observed regularly after inoculation, an electronic vernier caliper was used to measure the tumor diameters, the data was directly input to an Excel spreadsheet, and the tumor volumes were calculated. […] The tumor diameters were measured twice a week after the initiation of the experiment, the tumor volumes were calculated, and the body weights of the animals were weighed and recorded at the same time.
The calculation formula of the tumor volume (TV) was as follows: TV(mm^3)=l×w^2/2 wherein l represented the long diameter of a tumor (mm), and w represented the short diameter of a tumor (mm).
as §1
After the experiment was ended, the animals were euthanized (CO2) after the body weights were weighed and the tumor diameters were measured. The tumor tissues were excised and weighed, and the tumor weight inhibition rates were calculated. […]

[5] = test system: orthotopic U87MG brain glioma; type: in vivo, human; settings: orthotopic U87MG brain glioma in nude mice; 40 mg·kg^−1 (as active agent) IV Q4D × 3; n=5
Protocol: U87MG cells in logarithmic phase of growth were collected. […] The cells were charged into a 50 mL centrifuge tube after being pipetted with a pipettor to make them evenly dispersed, and the centrifuge tube was placed in an ice box. Cell suspension was aspirated with a 1 mL syringe, 1 μL of human brain glioma cell (U87MG cells) cultured in vitro was inoculated (1×10^5 cells/animal) using microinjection method via the guidance of a stereotactic apparatus for animals, the orthotopic U87MG brain glioma model was established, and animal status was observed periodically after inoculation.
The first administration was initiated on the day of grouping, the experiment was ended after 21 days, and the volumes of administration were all 10 mL·kg^−1. Group 1 was a solvent control group, and was given blank solvent by intravenous injection via tail once every 4 days for a total of 3 times (Q4D×3).
The first administration was initiated on the day of grouping, the experiment was ended after 21 days, and the volumes of administration were all 10 mL·kg^−1.
Groups with 10-hydroxycamptothecin as the active agent (Groups 14 to 18). The first administration was initiated on the day of grouping, the experiment was ended after 21 days, and the volumes of administration were all 10 mL·kg^−1.
Groups with rubitecan as the active agent (Groups 19 to 23). […]
The survival time of the animals were recorded.

CCc1c2c(nc3ccc(OC(=O)N4CCC(N5CCCCC5)CC4)cc13)-c1cc3c(c(=O)n1C2)COC(=O)[C@]3(O)CC [irinotecan]
Relative tumor proliferation rate (% T/C) [1]: 69%
Relative tumor proliferation rate (% T/C) [2]: 44.8%^
Relative tumor proliferation rate (% T/C) [3]: 59.4%
Average relative tumor proliferation rate (% T/C) [4]: 63.2%
Median survival time [5]: 27 days
